Experimental data: PubChem BioAssay AID449764 (Southern Research Specialized Biocontainment Screening …, 2010)
pIC50: −log10 of the molar value.

Test system: Mycobacterium tuberculosis H37Rv growth inhibition, no glycerol
Assay: Mycobacterium tuberculosis H37Rv growth inhibition, no glycerol, confirmatory dose response (AID 449764);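 further: growth read after 7 days of incubation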
Conditions: for IC90: measured here: IC90 growth inhibition

SMILES	pIC50	IC90 [µM]
O=C1NCC(O)=C1C=Nc1ccccc1O	5.26	7.6
Cn1c(NCC(O)c2ccccc2)nc2c1c(=O)n(Cc1ccc(Cl)c(Cl)c1)c(=O)n2C (configuration not stated)	4.11	> 100
COc1cc2nc(N3CCN(c4cc(C)ccc4C)CC3)nc(N)c2cc1OC	4.82	18.7
O=[N+]([O-])c1cnc(Nc2ccc(Cl)cn2)c([N+](=O)[O-])c1	4.04	99.4
O=C(Nc1ccc(C2=NCCN2)cc1)c1ccc(Cl)c(C(=O)Nc2ccc(C3=NCCN3)cc2)c1	4.64	25.4
Cc1ccc(C2(c3ccc(C)cc3)CC2C(=O)Nc2ccc([N+](=O)[O-])cc2O)cc1 (configuration not stated)	4.73	23.6
CCOC(=O)COc1ccc(S(=O)(=O)NCCC2=CCCCC2)cc1	4.64	25.9
N#Cc1cccc2c1-c1ccccc1/C2=N/NC(N)=O	–	> 100
CCc1ccc(NC(=O)CSc2nc3n[nH]c(C)c3c(=N)n2-c2cccc(OC)c2)cc1	4.14	> 100
CC1C/C(=C\c2cccnc2)C(=O)/C(=C/c2cccnc2)C1 (configuration not stated)	5.29	8.18
Cc1cc(C(=O)N[C@H](c2ccccc2)[C@@]2(C)C[C@@H]2[C@@H](C)C(=O)Nc2ccc3ccccc3c2)n(C)n1	4.41	53.9
CCOC(=O)c1nc2sc3c(c2c(=O)[nH]1)CCC(C)C3 (configuration not stated)	4.16	> 100
O=c1cc2[nH]c3ccccc3c(=O)n2nc1-c1ccccc1	4.98	15
Cc1ccc(C)c(-c2nn(-c3cc(N4CCN(CCO)CC4)ccc3[N+](=O)[O-])c(=O)c3ccccc23)c1	4.65	25.7
C=C(C)C(=O)OCC(O)COc1ccc(C(C)(C)c2ccc(OCC(O)COC(=O)C(=C)C)cc2)cc1 (configuration not stated)	4.45	49.1
Cn1cccc1/C=C1/C(=O)NC(=S)N(Cc2ccc(F)cc2)C1=O	–	> 100
CCCC12CN3CC(CCC)(CN(C1)C3c1ccccn1)C2=O (configuration not stated)	5.01	> 100
CCCCCC(O)c1cccc(OCc2ccc3ccccc3n2)c1 (configuration not stated)	4.45	56
Cc1ccc(OCCN2CCN(c3ncnc4sc(C)c(C)c34)CC2)cc1	4.27	79.3
COC(=O)[C@H](CCSC)NC(=O)N1CCN(c2cccc(C(F)(F)F)c2)CC1	4.54	58.8
Cc1oc(C(=O)Nc2ccc(O)cc2)cc1COc1ccccc1	4.82	35.1
COc1cccc(Nc2ccc([N+](=O)[O-])c3nonc23)c1	5.00	14.5

SMILES	pIC50	IC90 [µM]
O=[N+]([O-])c1cc(Cl)c(O)c(-[n+]2c(-c3ccccc3)cc(-c3ccccc3)cc2-c2ccccc2)c1	5.33	7.3
CCOC(=O)c1cnc(SC2CCc3ccccc3C2=O)nc1N (configuration not stated)	4.06	96.5
COc1ccc(N2C(=O)C(Cl)=C(Nc3ccccc3O)C2=O)cc1	4.73	24.8
O=C(c1cc([N+](=O)[O-])cc([N+](=O)[O-])c1)N(Cc1nnc(-c2ccccc2Cl)o1)C1CC1	4.80	23.5
CN(CCCCCCCCCCN(C)C(=O)Oc1cccc([N+](C)(C)C)c1)C(=O)Oc1cccc([N+](C)(C)C)c1	5.66	3.44
CCn1cc(Br)c(C(=O)Nc2ccc(C(=O)OC(C)C)cc2)n1	4.41	59.5
O=S1(=O)N(CCN2CC=C(c3c[nH]c4cc(F)ccc34)CC2)c2cccc3c2N1CCC3	4.95	12.3
CCOC(=O)Cc1csc(NC(=O)c2c(O)c3c(n(CC(C)C)c2=O)CCCC3)n1	4.73	36.7
COC(=O)c1ccc(-n2cnc3ccccc32)nc1	4.75	39.5
CCn1cnc2sc(C(=O)Oc3ccc(Br)cc3)c(C)c2c1=O	5.32	8.17
CCOC(=O)CSc1nsc(SCC(=O)OCC)c1C#N	4.92	13.5
CCOC(=O)C1=C(C)NC(SCC(=O)Nc2nc(C)cs2)=C(C#N)C1c1cccs1 (configuration not stated)	4.50	49.8
Cc1ccc(C(=O)c2oc3ccc(Cl)cc3c2NC(=O)CN2CCN(C)CC2)cc1	4.83	19.6
CCOC(=O)CSc1nnc(SCCN2C(=O)c3ccccc3C2=O)s1	5.06	22.4
CCOC(=O)C1CCN(c2nc3cc(OC)ccc3cc2C#N)CC1	4.08	> 100
O=C(COc1cccc(Oc2ccccc2)c1)Nc1ncccn1	4.30	> 100
Cc1cc(C)n(-c2ccc(C(=O)Oc3ccc4c(c3)OCO4)cc2)n1	4.93	> 100
CCc1ccc(C2c3[nH]c4ccccc4c3CCN2C(=O)c2ccc(=O)n(C)n2)cc1 (configuration not stated)	4.29	93.4
CCCOc1ccc2c(c1)C(=NN=C(N)N)c1cc(OCCC)ccc1-2	4.96	18.1
NCCCn1c(C(=O)c2ccc(Cl)cc2)c2ccc([N+](=O)[O-])cc2[n+]1[O-]	4.47	44.2
Cc1ccccc1Nc1nc(N)nc(COC(=O)c2ccc([N+](=O)[O-])o2)n1	4.05	> 100
Cc1nc(NC(=O)CC(C)C)sc1-c1csc(Nc2ccc(Cl)cc2Cl)n1	4.40	83.7

SMILES	pIC50	IC90 [µM]
O=C(NNC1CC(=O)N(c2ccc(Br)cc2)C1=O)c1ccccn1 (configuration not stated)	4.53	> 100
CN(C)C(=O)c1ccc(NC(=O)COC(=O)c2cc3c(s2)CCCCC3)cc1	4.04	> 100
O=C(OCc1csc(Nc2ccccc2)n1)c1ccc(Cl)cc1	4.33	53
Cc1ccc(C(C(=O)NCC2CCCO2)N(Cc2ccccc2)C(=O)c2ccc(-c3ccccc3)[nH]2)o1 (configuration not stated)	4.22	> 100
Cc1cc(N2CCN(c3ccc(C(F)(F)F)cc3[N+](=O)[O-])CC2)c2ccccc2n1	4.65	24.9
CCOC(=O)c1cc(-c2ccc(N3CCOCC3)cc2)nn1-c1ccccc1	4.55	58.1
CN(/N=C/c1cc(Br)cc(Br)c1O)c1cccc(C(F)(F)F)n1	5.10	11.2
CN1CCN(Cc2nc3ccccc3c(=O)n2Cc2nc(-c3ccc4ccccc4c3)cs2)CC1	4.68	28.5
Cc1cc(N/N=C2/CCCc3ccccc32)nc2ccccc12	4.38	45.6
COC(=O)C1=C(C)N(Cc2ccccc2)C(=NCc2cccc(Cl)c2)N[C@H]1c1ccccc1	4.69	26.6
Cc1ccc(CN2CCC(c3cc(-c4ccc(Cl)cc4)n[nH]3)CC2)cc1	4.93	18.2
Cc1ccc(S(=O)(=O)N(C)c2ccc(OCC(=O)OCc3ccc(C#N)cc3)cc2)cc1	4.76	28.3
CN(C)CCCN(C(=O)c1ccc([N+](=O)[O-])s1)c1nc2cc3c(cc2s1)OCCO3	4.45	62.2
CCOc1ccc(NCc2cccn2-c2nnc(N3CCC(C(=O)NCCCN4C(C)CCCC4C)CC3)s2)cc1 (configuration not stated)	4.03	> 100
C=C1C(=O)[C@@]23[C@H](O)C[C@@H]4C(C)(C)CC[C@H](O)[C@@]4(C)[C@@H]2CC[C@@H]1[C@H]3O	5.08	11.3
Oc1ccc2ccccc2c1C1Nc2cccc3cccc(c23)N1	–	> 100
CCC(=O)c1ccc(OCC(=O)OCC(=O)c2cc(C)n(C3CC3)c2C)cc1	4.72	40.7
C=CCNC(=S)N/N=C(\C)c1ccccn1	4.63	45.5
Cc1nn(-c2ccccc2)c(N)c1N=Nc1ccc(Cl)cc1	4.28	> 100
Cc1ccc(-n2cccc2C(=S)N=P(N(C)C)(N(C)C)N(C)C)cc1	4.61	26.1
Cc1cc(/C=N\NC(=O)c2cccs2)c(C)n1-c1ccc2ncccc2c1	4.43	60.2
COCCOC(=O)c1ccc(NC(=O)COc2ccc([N+](=O)[O-])cc2)cc1	–	> 100

SMILES	pIC50	IC90 [µM]
Cc1cc(C)n2nc(N)c(N=Nc3ccccc3)c2n1	5.59	3.46
Cc1occc1-c1nnc(SCC(=O)NCCc2ccccc2)o1	4.78	25.2
Cc1ccc(S(=O)(=O)NC(CC(C)C)C(=O)N2CCN(C/C=C/c3ccccc3)CC2)cc1 (configuration not stated)	4.18	90.2
CCOc1ccc(CN(C)CC(O)COC(c2ccc(OC)cc2)c2ccc(OC)cc2)cc1 (configuration not stated)	4.79	18.9
CCCCCCCCn1sccc1=O	5.69	2.83
COc1cc2c(cc1NC(=O)CN1C(=O)NC3(CCc4ccccc43)C1=O)oc1ccccc12 (configuration not stated)	4.70	> 100
CCCCCCC#Cc1ccc2c(c1)COc1c3ccccc3nn1-2	4.12	> 100
CCOC(=O)CSc1nnc(NC(=O)c2ccc3c(c2)OCO3)s1	4.94	20.2
O=C(CN1CCN(Cc2ccc(Cl)cc2)CC1)N/N=C/C=C/c1ccccc1[N+](=O)[O-]	4.44	45.6
Cc1nc2ccc(NC(=O)c3ccc([N+](=O)[O-])cc3[N+](=O)[O-])cc2s1	4.45	> 100
C#CCOC(=O)/C(=C/C=C/c1ccccc1)NC(=O)c1ccccc1	4.57	56.6
COc1ccc(NCc2nnc(SCC(=O)c3ccc(OC)cc3)o2)cc1	4.68	22.9
c1ccc(CCN2CCN(c3ncnc4c3cnn4-c3ccccc3)CC2)cc1	4.32	91.1
CCOC(=O)C1CCN(C(=O)CSCc2nc(-c3ccc(OCC)cc3)oc2C)CC1	4.34	49.2
CN(C)c1ccc(CNC2C3CC4CC(C3)CC2C4)cc1 (configuration not stated)	4.91	17
CC1CCCCC1NC(=O)c1ccc2c(c1)[nH]c(=O)n2C1CCCC1 (configuration not stated)	5.02	14.1
CC1(C)Cc2ccccc2C2=NNC(=O)C2=N1	4.95	15.1
Cc1nn(-c2ccccc2)c(Cl)c1C(=O)Nc1nnc(C2CCCCC2)s1	–	> 50
CN(C)c1ccc(-c2cc(O)c3ncccc3c2)cc1	5.58	3.53
O=c1c(Cl)nc2cc(Cl)ccc2n1CCNc1ncc(C(F)(F)F)cc1Cl	5.53	3.37
